Laboratory results as given in paper PMC3779320, “Bub3 reads phosphorylated MELT repeats to promote spindle assembly checkpoint signaling” (eLife, 2013).
Changes are numbered by the printed parent chain. Square brackets hold non-standard residues; d marks the D form. Peptide text beside a SMILES is read from it. pT = C[C@@H](OP(=O)(O)O)[C@H](N)C(=O)O

What was measured:
Bub1^289–359–Bub3^R217A = target: T1, Bub1^289–359–Bub3^R217A (Saccharomyces cerevisiae, UniProt P26449+P41695, R217A); test: ITC binding to Bub1^289–359–Bub3^R217A; conditions: Bub3 R217A compared with wild type (13- to 25-fold for R217A or R239A)
T1 construct: S. cerevisiae Bub1^289–359 and for full length Bub3; GST (N, cleaved yes); made in house; host or cells: E. coli BL21 DE3 plysS
T1 sequence (P26449 1-341 R217A): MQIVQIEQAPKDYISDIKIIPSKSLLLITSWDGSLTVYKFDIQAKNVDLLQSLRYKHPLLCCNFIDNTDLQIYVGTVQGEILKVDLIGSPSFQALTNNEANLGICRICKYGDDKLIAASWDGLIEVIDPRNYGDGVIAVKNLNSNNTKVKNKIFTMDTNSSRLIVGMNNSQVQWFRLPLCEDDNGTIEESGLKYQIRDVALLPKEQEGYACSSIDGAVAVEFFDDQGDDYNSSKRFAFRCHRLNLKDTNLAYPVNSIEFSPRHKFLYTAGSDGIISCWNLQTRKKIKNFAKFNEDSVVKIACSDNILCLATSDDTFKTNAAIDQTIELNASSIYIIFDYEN
T1 sequence (P41695 289-359): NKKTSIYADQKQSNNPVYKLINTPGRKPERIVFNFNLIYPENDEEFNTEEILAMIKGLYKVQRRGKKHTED
Description: (§1) Because the presence of a phosphate on Thr172^Spc105/Knl1 is essential for high-affinity binding of ScBub1^289–359–Bub3 to MELT^P peptides (Figure 1), we concentrated our mutational analysis on two residues that are directly implicated in the recognition of the peptide’s phospho-threonine, Arg217^Bub3 and Arg239^Bub3. Positively charged residues are invariant at these positions of the Bub3 alignment (Figure 2C). We generated single or double alanine mutants of Arg217^Bub3 and Arg239^Bub3 in the context of ScBub1^289–359–Bub3 and tested their binding affinity for the MELT2^P peptide by ITC.
(§2) cDNA sequences coding for S. cerevisiae Bub1^289–359 and for full length Bub3 were subcloned in the first and second cassettes of pGEX-6P-2rbs vector ([Ciferri et al., 2005]). In this construct, the cDNA encoding Bub1^289–359 was sub-cloned in frame with the gene encoding GST and a cleavage site for PreScission protease, and was translated from the first ribosome-binding site (rbs). Untagged Bub3 was subcloned downstream of the second rbs in the same vector. Expression was carried out in BL21 DE3 plysS cells in LB medium by auto-induction with 0.3% lactose at 18°C for approximately 16 hr. […]
(§3) Binding isotherm was measured at 25°C by isothermal titration calorimetry on a MicroCal ITC200 device (GE Healthcare, Piscataway, NJ). […]

[1] = system: Bub1^289–359–Bub3^R217A–R239A; test: ITC binding to Bub1^289–359–Bub3^R217A–R239A double mutant; design: species or system Saccharomyces cerevisiae; conditions: 25°C, 20 mM Tris pH7.5, 150 mM NaCl, 1 mM DTE, complex 30 µM in cell, peptide 400 µM
Description: as §1, §2, §3

Bub3 = target: T2, Bub3 (Saccharomyces cerevisiae, UniProt P26449); test: ITC binding to Bub3 in the absence of Bub1; conditions: Bub3 without Bub1 compared to the Bub1–Bub3 complex
T2 construct: S. cerevisiae Bub1^289–359 and for full length Bub3; made in house
T2 sequence (P26449 1-341): T1 sequence (P26449 1-341 R217A) with A217R
Experimental: However, as already anticipated in the Introduction, several lines of evidence indicate that Bub1 contributes to this interaction (Discussion). To test this possibility formally, we measured the binding of purified Bub3 (Figure 1D) to the MELT2^P peptide in the absence of Bub1.
Binding isotherm was measured at 25°C by isothermal titration calorimetry on a MicroCal ITC200 device (GE Healthcare, Piscataway, NJ). All samples were extensively dialysed into fresh GF buffer (20 mM Tris pH7.5, 150 mM NaCl, 1 mM DTE). In each titration, the Bub1^289–359–Bub3 in the cell (at a 30 µM concentration) was titrated with thirty-five 2-µl injections (at 90 s intervals) of the indicated synthetic MELT^P peptides (at a concentration of 400 µM). The injections were continued beyond saturation levels to allow for determination of heats of ligand dilution. Data were fitted by least-square procedures to a single-site binding model using ORIGIN 5.0 software package (MicroCal, Northampton, MA).

CC[C@H](C)[C@H](NC(=O)[C@H](CO)NC(=O)[C@H](CCCNC(=N)N)NC(=O)[C@@H]1CCCN1C(=O)[C@H](Cc1ccccc1)NC(=O)[C@@H](NC(=O)[C@H](CCC(=O)O)NC(=O)[C@@H](NC(=O)[C@H](CCSC)NC(=O)[C@H](CCC(=O)O)NC(=O)[C@H](CCSC)NC(=O)[C@H](CO)NC(=O)[C@@H](NC(=O)[C@@H]1CCCN1C(=O)[C@H](CC(=O)O)NC(C)=O)[C@@H](C)O)[C@@H](C)OP(=O)(O)O)C(C)C)C(=O)N[C@@H](CCCNC(=N)N)C(=O)N[C@@H](CCC(N)=O)C(=O)N[C@@H](CCCCN)C(=O)N[C@@H](CC(N)=O)C(N)=O [MELT2^P] (Ac-DPTSMEM[pT]EVFPRSIRQKN-NH2; N-terminus and C-terminus assumed)
fold reduction in binding affinity (Bub1^289–359–Bub3^R217A): 13 fold
binding (in words) [1]: no significant residual binding
fold reduction in binding affinity (Bub3): 10 fold
